Reference: patent publication US20220356538A1, “HEPATITIS B VIRUS MUTANTS WITH INCREASED […] CIRCULAR DNA” (The Penn State Research Foundation, priority 2019, published 2022)

Experiments:
HBV cccDNA = HBV cccDNA levels: Southern blot of protein-free DNA from HepG2 cells transfected with HBV replication plasmids; assay type: cell-based, Hepatitis B virus
Source text: (§1) FIG. 1. Effects of HBc linker mutations on cccDNA levels and NC stability. HBV replication plasmids expressing either the wild type (wt) HBc or indicated linker mutants were transfected into human hepatoma cells (HepG2). HBV DNA associated with NCs (core DNA) (lanes 1-8), or protein-free DNA (PF-DNA) (i.e., those DNA species no longer covalently attached to the viral RT protein and mostly released from NCs) (lanes 9-12) was extracted from the transfected cells and analyzed by Southern blot analysis using a radio-labeled HBV DNA probe. The core DNA shown in lanes 5-8 was extracted following prior treatment of the cell lysate with an exogenous DNase, which removes core DNA that was not protected by the capsid (i.e., from destabilized NCs). RC, rcDNA; CCC, cccDNA; SS, single stranded DNA—a reverse transcription intermediate during the synthesis of rcDNA from pgRNA.
FIG. 3. Effects of HBc linker and envelope mutations on cccDNA levels. […] HBV DNA associated with NCs (core DNA; A), or protein-free DNA (PF-DNA; B) (i.e., those DNA species no longer covalently attached to the viral RT protein and mostly released from NCs) was extracted from the transfected cells and analyzed by Southern blot analysis using a radio-labeled HBV DNA probe. […]

HBV core DNA = HBV core DNA synthesis: Southern blot of NC-associated core DNA from transfected cells; assay type: cell-based, Hepatitis B virus
Source text: as §1
FIG. 4. HBc linker mutants increased HBV CCC DNA by 2-30 fold. Data are shown for LC (S141T/V148I/V149I), S141A, S141D, S141R, L143A, L143I, E145D, and TT146/147AA (a combination of T146A and T147A; aka T146A/T147A).

L140A [Mutant L140A]
cccDNA formation (HBV cccDNA): no cccDNA was made | HBV core DNA synthesis (HBV core DNA): blocked HBV core DNA synthesis
